Where two headings read alike, the source gives them in different places.
Assays:
kinases = assay: KinomeScan selectivity scores / number of hits; format: binding
Method: These assays may be conducted by DiscoverX (formerly Ambit; San Diego, Calif.). The percentage inhibition produced by incubation with a test compound may be calculated relative to the non-inhibited control.

[1] = Hydrolytic stability study in DMSO and water (3:1); format: physicochemical; details: 1 mg/mL
Method: General HPLC Procedure • Agilent, Waters X-Select C18, 2.5 μm, 4.6×30 mm column, 4 min method, 5-95% MeCN/water (0.1% formic acid). • Flow rate 2.5 ml/min • Column Oven Temperature 40° C. • Detection 254 nm.
Sample Preparation • A 1.0 mg sample of test compound was dissolved in 750 μL of DMSO. Water (250 μL) was added slowly, ensuring no precipitation occurred.
Recording Stability • A 50 μL aliquot of the test solution was removed and analysed in duplicate by 5 μL HPLC injections. The peak area for the test compound was recorded following manual integration of the corresponding UV trace. • The test solution was heated to 60° C., with stirring, and 50 μL aliquots removed for HPLC analysis at 5 and 24 h timepoints.

Syk = Syk (Homo sapiens (Human), UniProt P43405); assay: Syk enzyme inhibition (FRET); format: biochemical
Summary of the method: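 Z-LYTE FRET peptide assay: c-Src (3000 ng/mL) or Syk (2000 ng/mL) preincubated 2 h at room temperature with compound (4–0.004 μg/mL working solutions). Reaction was 1 h with peptide (8 μM solution) and ATP (800 μM c-Src, 60 μM Syk solutions), followed by 1 h protease development. Phosphorylation was read as the coumarin/fluorescein emission ratio.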

[2] = Hepatic microsomal stability, rat; format: in vitro ADME; details: pooled liver microsomes, read-out: Mean intrinsic clearance
Method: (§1) • Microsomal stability assays were performed with incubations of test compounds at 0.1 μM (n=2, final DMSO concentration 0.25%), and carried out using pooled human, […], rat and Cynomolgus macaque hepatic microsomes from Xenotech (Lots 1210153, 0810143 and 1110042, respectively) at 0.25 mg protein/mL in the presence of cofactor, NADPH. The incubations were performed at 37° C. with 100 μL aliquots taken from the incubation, at 0, 2, 5, 10 and 20 minutes (and, in the case of Cynomolgus macaque hepatic microsomes, 40 minutes) and reactions terminated by addition of 100 μL of acetonitrile containing carbamazepine as analytical internal standard. […] Half-life values were calculated from the relationship T1/2 (min)=−0.693/λ • where λ was the slope of the Ln concentration vs time curve. • The in vitro intrinsic clearance, Clint (mL/min/kg), was calculated and scaled to hepatic extraction ratios using the following scaling parameters and formulae.
(§2) Formulae Clint(tissue clearance) mL/min/kg=[0.693/t½ (min)]×[1/microsomal protein concentration mg/mL]×[mg microsomes/g liver]×[g liver/kg body weight] […] Half-life values were calculated from the relationship T1/2 (min)=−0.693/λ • where λ was the slope of the Ln concentration vs time curve. • Standard compounds testosterone, midazolam and 4-methylumbelliferone are included in the assay design.

[3] = system: TNBS-induced colitis in mice; assay: (C) TNBS-induced colitis in mice; format: in vivo, male BDF1 mice; details: for LP inflammation / Ulcer grade: 2 days
Method: Non-fasted, 10-12 week old, male BDF1 mice are dosed by oral gavage twice daily with either vehicle (5 mL/kg), reference item (Budesonide 2.5 mg/kg) or test compound (1 or 5 mg/kg) one day before (Day −1) stimulation of the inflammatory response by treatment with 2,4,6-trinitrobenzenesulphonic acid (TNBS) (15 mg/mL in 50% ethanol/50% saline). On Day 0 of the study TNBS (200 μL) is administered intra-colonically via a plastic catheter with BID dosing of the vehicle, reference or test compound continuing for 2 or 4 days. During the study animals are weighed every day and stool observations are made and recorded as a score, based on stool consistency. At the time of sacrifice on Day 2 (or Day 4) the large intestine is removed and the length and weight recorded. Sections of the colon are taken for histopathology scoring to determine disease severity.

[4] = Hepatic microsomal stability, dog; format: in vitro ADME; details: pooled liver microsomes, read-out: Mean intrinsic clearance
Method: as §1, §2

PBMCs = assay: (b) LPS-induced TNFα/IL-8 release in PBMC cells; format: cell-based; details: Homo sapiens

C#Cc1cc(Nc2nccc(Oc3ccc(NC(=O)Nc4cc(C(C)(C)C)nn4-c4ccc(C)cc4)c4ccccc34)n2)cc(C(=O)NCCOCCOCCOC)c1 [Example 2, 3-((4-((4-(3-(3-(tert-Butyl)-1-(p-tolyl)-1H-pyrazol-5-yl)ureido)naphthalen-1-yl)oxy)pyrimidin-2-yl)amino)-5-ethynyl-N-(2-(2-(2-methoxyethoxy)ethoxy)ethyl)-benzamide]
KinomeScan S(1) number of hits (kinases; 50 nM): 0
KinomeScan S(10) number of hits (kinases; 50 nM): 8
KinomeScan S(35) number of hits (kinases; 50 nM): 32
KinomeScan S(1) number of hits (kinases; 500 nM): 4
KinomeScan S(10) number of hits (kinases; 500 nM): 39
KinomeScan S(35) number of hits (kinases; 500 nM): 92
% left ([1]; 0 min): 100%
% left ([1]; 60° C., 300 min): 83%
% left ([1]; 60° C., 1440 min): 39%
IC50 (Syk): 50 nM
microsomal CLint at 0.1 μM [2]: 199 µL/min/mg
LP inflammation ([3]; 1 mg/kg oral BID): 2.9 ± 0.3
Ulcer grade ([3]; 1 mg/kg oral BID): 3.5 ± 0.4
LP inflammation ([3]; 5 mg/kg oral BID): 2.2 ± 0.4
Ulcer grade ([3]; 5 mg/kg oral BID): 3.0 ± 0.5
ulcer grade and epithelial repair compared to the vehicle control (histopathology) ([3]; dosed orally at 5 mg/kg): marked improvements in ulcer grade and epithelial repair
inflammatory cell infiltrate in the reticular and lamina propria zones (histopathology) ([3]; oral dosing): marked reduction
microsomal CLint at 0.1 μM [4]: > 554 µL/min/mg
IC50 (PBMCs; read-out: IC50 for Inhibition of Cytokine Release, IL-8): 2 nM
IC50 (PBMCs; read-out: IC50 for Inhibition of Cytokine Release, TNFα): 0.7 nM
